The text below walks through data of patent publication US9687479B2, “Multisubstituted aromatic compounds as serine protease inhibitors” (VERSEON CORPORATION, priority 2013, dated 2017).

pIC50: −log10 of the molar value. Read-outs that look alike come from different tables or passages of the source.

For data set [1], the target named is Recombinant human tissue kallikrein (KLK1) (Homo sapiens (Human), UniProt P06870). Nature of the data set: KLK1 kallikrein activity inhibition assay (Pro-Phe-Arg-AMC substrate). The data set is classed as biochemical. Here is the method: The KLK1 kallikrein activity reported herein (e.g., Tables B and C) was obtained as follows. Recombinant human tissue kallikrein (KLK1) was obtained from R&D Systems. […] KLK1 enzyme is activated by incubating 0.5 mg/ml KLK1 combined with 0.1 μg/ml thermolysin in a buffer of 0.05 M Tres (pH 7.5), 0.15 M NaCl, and 0.01 M CaCl2 for one hour at 37° C. The thermolysin is then deactivated by the addition of equal parts 20 mM 1, 10 phenanthroline solution in water. The activated KLK1 solution is then added to CHES buffer (0.05 M CHES, 0.15 M NaCl, 0.01 M CaCl2, pH 10) for a final concentration of 5 nM along with the test article and incubated for 10 minutes. […] Substrate activation is read 10 minutes after substrate addition using a Synergy H1 multifunction plate reader (Biotek) programmed with a 360 nm excitation wavelength and a 480 nm emission wavelength. Inhibitor response was established by adding test compound as ten point, three-fold serial dilutions, as known in the art. The IC50 was calculated by plotting the percent (%) inhibition against compound concentration and fitting the data to a constrained four parameter sigmoidal curve, as known in the art.

A further data set addresses Human KLKB1 (Homo sapiens (Human), UniProt P03952). Nature of the data set: KLKB1 kallikrein activity inhibition assay (chromogenic substrate S-2302). The data set is classed as biochemical. In short, it runs like this: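 Enzyme at a final 3 nM was assayed in 0.05 M Tris pH 7.4, 0.01 M NaCl and 0.2% PEG-8000 at room temperature, with compounds as ten-point threefold dilutions.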

Data set [2] in a line: Pharmacokinetics in mice (i.v. and p.o.). The data set is classed as in vivo, male CD-1 mice. The note with it: plasma. Here is the method: Each compound is administered intravenously (i.v.) as a single dose via tail vein or orally (p.o.) as a single dose via gastric gavage to male CD-1 mice of nominal weights between 20 g and 26 g. Nominal doses are 1 mg/kg and 5 mg/kg for i.v. and p.o., respectively. In some examples (dose type A), both p.o. and i.v. doses are prepared by dissolving the test compound in 5% dimethyl acetamide and diluted in tetraethylene glycol for a final concentration of 0.25 mg/mL. In other examples (dose type B), i.v. doses are prepared by dissolving test compounds in 20% dimethyl acetamide, 40% polyethylene glycol 300 and 40% phosphate buffered saline, and p.o. doses are prepared by dissolving test compounds in carboxymethyl cellulose suspension (1% by weight) in water and 2.5% dimethyl acetamide.
Animals are housed in standard holding cages with food and water available ad libitum except for animals used for p.o. dosing which are fasted overnight prior to dosing. Samples are taken in triplicate via cardiac puncture at times prior to dosing and at 0.083 (i.v. only), 0.25, 0.5, 1, 2, 4, 8, and 24 hours after administration. Plasma is obtained by centrifuge and stored frozen until analyzed by LC-MS/MS using a Shimadzu VP System HPLC coupled to a Applied Biosystems MDS SCIEX API 3000 triple quadrapole MS. Assay results are calibrated using reference samples prepared in a range between 1.5 and 5000 ng/mL.
Pharmacokinetic parameters are calculated from mean concentration values using a non-compartmental analysis as described in the following and as apparent to those of ordinary skill in the art. Half-lives (t1/2) and elimination rate constants (λ) are determined by log linear regression using equal weighting on the last three finite sample time points. Concentration at time zero (C0) for the i.v. data is established by the extrapolation of log linear regression using equal weighting on the first three sample time points. Area under the curve (AUC) values are calculated using linear trapezoidal integration. Systemic clearance (CL) is calculated as the ratio of dosage and AUC. […] Percent oral bioavailability (% F) is determined from the ratio of i.v. and p.o. AUC values weighted by dosage.

A further data set addresses Human thrombin (Homo sapiens (Human), UniProt P00734). Nature of the data set: Thrombin protease activity inhibition assay (chromogenic substrate S-2238). The data set is classed as biochemical. To be noted: 3 nM thrombin, 125 μM S-2238, 10 min pre-incubation, RT. The procedure, abridged:
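Thrombin at 3 nM final in 0.05 M Tris pH 7.4, 0.015 M NaCl, 0.01% PEG-8000, at room temperature; compounds as ten-point three-fold dilutions.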

Sequence of Recombinant human tissue kallikrein (KLK1) (P06870 25-262): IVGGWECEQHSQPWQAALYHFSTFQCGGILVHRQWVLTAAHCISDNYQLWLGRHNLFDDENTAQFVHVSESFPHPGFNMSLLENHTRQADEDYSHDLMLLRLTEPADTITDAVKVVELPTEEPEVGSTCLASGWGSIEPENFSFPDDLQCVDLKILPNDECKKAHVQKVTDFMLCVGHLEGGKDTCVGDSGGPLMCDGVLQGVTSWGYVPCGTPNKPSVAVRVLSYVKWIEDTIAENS
Sequence of Human KLKB1 (P03952 391-638 limits assumed): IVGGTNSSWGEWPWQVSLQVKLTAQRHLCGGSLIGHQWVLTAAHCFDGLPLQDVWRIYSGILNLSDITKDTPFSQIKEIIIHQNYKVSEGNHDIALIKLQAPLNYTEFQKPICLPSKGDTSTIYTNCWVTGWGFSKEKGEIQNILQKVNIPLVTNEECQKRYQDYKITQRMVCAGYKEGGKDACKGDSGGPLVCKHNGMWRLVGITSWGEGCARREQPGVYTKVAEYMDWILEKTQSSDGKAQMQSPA
Sequence of Human KLKB1 (P03952 20-390 partner limits assumed): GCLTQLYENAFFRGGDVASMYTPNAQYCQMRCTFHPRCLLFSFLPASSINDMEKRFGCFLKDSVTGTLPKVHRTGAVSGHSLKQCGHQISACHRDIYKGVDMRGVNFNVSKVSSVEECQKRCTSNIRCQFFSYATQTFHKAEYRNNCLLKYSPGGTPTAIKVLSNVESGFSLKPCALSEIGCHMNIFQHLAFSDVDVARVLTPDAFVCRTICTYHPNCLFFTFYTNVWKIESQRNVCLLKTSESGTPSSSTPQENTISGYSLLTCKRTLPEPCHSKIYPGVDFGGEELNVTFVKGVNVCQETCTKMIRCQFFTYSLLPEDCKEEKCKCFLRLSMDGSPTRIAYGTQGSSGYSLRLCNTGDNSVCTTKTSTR

In the case of `COc1ccccc1C(=O)n1nc(-c2ncccn2)nc1NCc1ccccc1` [Cmpd 18], the pIC50 (commonly −log10 of the IC50, conventionally taken in molar units) is 4.00 to 5.00 in data set [1] (Table C) and 6.00 to 7.00 on Human KLKB1 (Table C).
`CC(C)(C)C(=O)n1nc(C2CCNCC2)c(F)c1NCc1ccc(Cl)s1` [Cmpd 24]: the bioavailability in data set [2] (male, CD-1, mouse, po, 5 mg/kg, read-out: % F) is 70%. For the same molecule, the AUC (in general, concentration integrated over time) in data set [2] (mouse, iv, male CD-1 mice, single i.v. dose 1 mg/kg, dose type A (5% dimethyl acetamide, tetraethylene glycol), read-out: i.v. AUC) worked out at 200 ng·h/mL; in data set [2] (mouse, po, male CD-1 mice, single p.o. dose 5 mg/kg, dose type A (5% dimethyl acetamide, tetraethylene glycol), read-out: p.o. AUC), 600 ng·h/mL. Moreover, the C0 in data set [2] (mouse, iv, male CD-1 mice, single i.v. dose 1 mg/kg, dose type A (5% dimethyl acetamide, tetraethylene glycol), read-out: i.v. C0) was 200 ng/mL. Also, the clearance in data set [2] (mouse, iv, male CD-1 mice, single i.v. dose 1 mg/kg, dose type A (5% dimethyl acetamide, tetraethylene glycol), read-out: i.v. CL (converted)) was 83.3 mL/min/kg. Moreover, in data set [2] (mouse, iv, male CD-1 mice, single i.v. dose 1 mg/kg, dose type A (5% dimethyl acetamide, tetraethylene glycol), read-out: i.v. Vd), the Vd turned out to be 8 L/kg. Besides, the half-life is 1 h in data set [2] (mouse, iv, male CD-1 mice, single i.v. dose 1 mg/kg, dose type A (5% dimethyl acetamide, tetraethylene glycol), read-out: i.v. t1/2 (converted)) and 1 h in data set [2] (mouse, po, male CD-1 mice, single p.o. dose 5 mg/kg, dose type A (5% dimethyl acetamide, tetraethylene glycol), read-out: p.o. t1/2 (converted)).
In the case of `O=C(c1ccsc1)n1nc(-c2cccn(Cc3ccsc3)c2=O)cc1NCc1ccc(Cl)s1` [Cmpd 203, 3-(5-[(5-chlorothiophen-2-yl)methyl]amino-1-[(thiophen-3-yl)carbonyl]-1H-pyrazol-3-yl)-1-(thiophen-3-ylmethyl)-1,2-dihydropyridin-2-one], the negative logarithm of the IC50 (pIC50) is over 7.00 against Human thrombin and 6.00 to 7.00 against Human KLKB1 (Table B).
For `COCCn1cccc(-c2cc(NCc3ccc(Cl)s3)n(C(=O)c3ccc(N4CCOCC4)cc3)n2)c1=O` [Cmpd 208, 3-(5-[(5-chlorothiophen-2-yl)methyl]amino-1-[4-(morpholin-4-yl)phenyl]carbonyl-1H-pyrazol-3-yl)-1-(2-methoxyethyl)-1,2-dihydropyridin-2-one], in that order: over 7.00 and 5.00 to 6.00.
For `O=C(c1ccc(N2CCOCC2)cc1)n1nc(-c2cccn(Cc3ccoc3)c2=O)cc1NCc1ccc(Cl)s1` [Cmpd 210, 3-(5-[(5-chlorothiophen-2-yl)methyl]amino-1-[4-(morpholin-4-yl)phenyl]carbonyl-1H-pyrazol-3-yl)-1-(furan-3-ylmethyl)-1,2-dihydropyridin-2-one] the same measures were over 7.00 and 4.00 to 5.00.
For `O=C(c1ccc(N2CCOCC2)cc1)n1nc(-c2cccn(Cc3ccncc3)c2=O)cc1NCc1ccc(Cl)s1` [Cmpd 214, 3-(5-[(5-chlorothiophen-2-yl)methyl]amino-1-[4-(morpholin-4-yl)phenyl]carbonyl-1H-pyrazol-3-yl)-1-(pyridin-4-ylmethyl)-1,2-dihydropyridin-2-one] the same measures were over 7.00 and 6.00 to 7.00.
For the molecule `O=C(c1ccc(N2CCOCC2)cc1)n1nc(-c2cccn(CCN3CCOCC3)c2=O)cc1NCc1ccc(Cl)s1` [Cmpd 218, 3-(5-[(5-chlorothiophen-2-yl)methyl]amino-1-[4-(morpholin-4-yl)phenyl]carbonyl-1H-pyrazol-3-yl)-1-[2-(morpholin-4-yl)ethyl]-1,2-dihydropyridin-2-one], the pIC50 was over 7.00 against Human thrombin and 6.00 to 7.00 on Human KLKB1 (Table B).
Turning to `O=c1c(-c2cc(NCc3ccc(Cl)s3)[nH]n2)cccn1Cc1ccccn1` [Cmpd 227, 3-(5-[(5-chlorothiophen-2-yl)methyl]amino-1H-pyrazol-3-yl)-1-(pyridin-2-ylmethyl)-1,2-dihydropyridin-2-one], the pIC50 was 5.00 to 6.00 against Human thrombin and under 4.00 at Human KLKB1 (Table B).
Turning to `O=c1c(-c2cc(NCc3ccc(Cl)s3)[nH]n2)cccn1Cc1ccncc1` [Cmpd 229, 3-(5-[(5-chlorothiophen-2-yl)methyl]amino-1H-pyrazol-3-yl)-1-(pyridin-4-ylmethyl)-1,2-dihydropyridin-2-one], the pIC50 at Human thrombin was 5.00 to 6.00; against Human KLKB1 (Table B), under 4.00.
Consider `O=c1c(-c2cc(NCc3ccc(Cl)s3)n[nH]2)cccn1CCc1ccccn1` [Cmpd 235, 3-(5-[(5-chlorothiophen-2-yl)methyl]amino-1H-pyrazol-3-yl)-1-[2-(pyridin-2-yl)ethyl]-1,2-dihydropyridin-2-one], for which the pIC50 on Human thrombin and on Human KLKB1 (Table B) was 4.00 to 5.00 throughout.
On to `O=C(c1ccco1)n1nc(-c2ccc[nH]c2=O)cc1NCc1ccccc1` [Cmpd 237, 3-[5-(benzylamino)-1-[(furan-2-yl)carbonyl]-1H-pyrazol-3-yl]-1,2-dihydropyridin-2-one], for which the negative logarithm of the IC50 (pIC50) at Human thrombin is 6.00 to 7.00; against Human KLKB1 (Table B), 4.00 to 5.00.
For `O=C(c1ccco1)n1nc(-c2cccn(Cc3ccccn3)c2=O)cc1NCc1ccccc1` [Cmpd 238, 3-[5-(benzylamino)-1-[(furan-2-yl)carbonyl]-1H-pyrazol-3-yl]-1-(pyridin-2-ylmethyl)-1,2-dihydropyridin-2-one] the same measures were over 7.00 and 5.00 to 6.00.
For `O=C(c1ccccc1Cl)n1nc(-c2cccn(Cc3ccco3)c2=O)cc1NCc1ccc(Cl)s1` [Cmpd 243, 3-1-[(2-chlorophenyl)carbonyl]-5-[(5-chlorothiophen-2-yl)methyl]amino-1H-pyrazol-3-yl-1-(furan-2-ylmethyl)-1,2-dihydropyridin-2-one] the same measures were over 7.00 and 6.00 to 7.00.
For `O=C(c1ccccc1Cl)n1nc(-c2cccn(Cc3ccoc3)c2=O)cc1NCc1ccc(Cl)s1` [Cmpd 244, 3-1-[(2-chlorophenyl)carbonyl]-5-[(5-chlorothiophen-2-yl)methyl]amino-1H-pyrazol-3-yl-1-(furan-3-ylmethyl)-1,2-dihydropyridin-2-one], in that order: over 7.00 and 6.00 to 7.00.
On to `Cn1cccc(-c2cc(NCc3ccc(Cl)s3)n(C(=O)C3(COC(=O)C4(CO)CC4)CC3)n2)c1=O` [Cmpd 265, 1-[(5-[(5-chlorothiophen-2-yl)methyl]amino-3-(1-methyl-2-oxo-1,2-dihydropyridin-3-yl)-1H-pyrazol-1-yl)carbonyl]cyclopropylmethyl 1-(hydroxymethyl)cyclopropane-1-carboxylate], for which the values for the pIC50 at Human thrombin and against Human KLKB1 (Table B) were over 7.00 and 5.00 to 6.00, respectively.
Take `Nc1ccccc1C(=O)n1nc(-c2ncccc2F)cc1NCc1ccc(Cl)s1` [Cmpd 276]: the pIC50 was 4.00 to 5.00 in data set [1] (Table B) and 5.00 to 6.00 against Human KLKB1 (Table B).
For `Nc1ccccc1C(=O)n1nc(-c2ccco2)cc1NCc1ccc(Cl)s1` [Cmpd 277], in that order: 4.00 to 5.00 and 5.00 to 6.00.
For `COc1ccccc1C(=O)n1nc(C2CCCCC2O)cc1NCc1ccc(Cl)s1` (stereo not shown) [Cmpd 282] the same measures were under 4.00 and 5.00 to 6.00.
For `O=C(c1ccsc1)n1nc(-c2cccnn2)cc1NCc1ccc(Cl)s1` [Cmpd 292], in that order: under 4.00 and 6.00 to 7.00.
`O=C(c1ccsc1)n1nc(-c2ccccn2)cc1NCc1ccc(Cl)s1` [Cmpd 293]: the pIC50 is under 4.00 in data set [1] (Table B) and 6.00 to 7.00 against Human KLKB1 (Table B).
For `O=C(c1ccoc1)n1nc(C2CCOCC2)c(F)c1NCc1ccc(Cl)s1` [Cmpd 294] the same measures were under 4.00 and 5.00 to 6.00.
For the molecule `COc1ccc(CNc2nc(-c3ccccn3)nn2C(=O)CCc2ccccc2)cc1` [Cmpd 323], the pIC50 was 4.00 to 5.00 in data set [1] (Table C) and 5.00 to 6.00 against Human KLKB1 (Table C).
For `COc1ccccc1C(=O)n1nc(-c2ccccn2)nc1NCc1nccs1` [Cmpd 332], in that order: 6.00 to 7.00 and 4.00 to 5.00.
